Converted amounts (≈) assume the structure as drawn. Some results are limits rather than exact numbers.

103 molecules from PubChem BioAssay AID1996 can be followed below.

For the data set the following is noted: buffer; pH 7.4; 200.0 µM.
The molecule `COc1ccc2cc(/C=N/O)c(Cl)nc2c1` registered a kinetic solubility of 0.9 µg/mL (≈ 3.8 µM).
Then `O=C(COc1cccnc1[N+](=O)[O-])Nc1cccc2ccccc12`, with 22.7 µg/mL (≈ 70.2 µM).
With `O=C(CN1C(=O)c2ccccc2S1(=O)=O)Nc1ccc([N+](=O)[O-])cc1`, the solubility (kinetic) worked out at 6 µg/mL (≈ 16.6 µM).
The molecule `O=C(c1ccc(Br)cc1)N(c1ccccn1)C1CCCCC1` showed a kinetic solubility of 16.5 µg/mL (≈ 45.9 µM).
In the case of `CC1(C)Cc2nc3[nH]c(=S)[nH]c(=O)c3cc2CO1`, the solubility (kinetic) is > 39.5 µg/mL.
As for `O=C(COC(=O)C1CCC1)NCc1ccc(Cl)cc1Cl`, the figure is > 47.4 µg/mL.
Then `COc1ccc(Cl)cc1NC(=O)CN1CCCCCC1`, with 2.1 µg/mL (≈ 7.08 µM).
As for `COc1ccc([N+](=O)[O-])cc1NS(=O)(=O)c1cccc(C(=O)OC2CCOC2=O)c1` (stereo not drawn), the figure is > 65.5 µg/mL; as for `Cc1ccc(NC(=O)C2CCN(S(=O)(=O)c3cc([N+](=O)[O-])ccc3Cl)CC2)nc1`, 16 µg/mL (≈ 36.5 µM); as for `O=C(O)c1ccc(N=Nc2c(-c3ccccc3)[nH]oc2=O)cc1`, > 46.4 µg/mL.
Consider `COc1ncnc(-c2ccccc2)c1-c1ccccc1`, for which the kinetic solubility was 14.9 µg/mL (≈ 56.8 µM).
Then `O=C(c1cccc(Cl)c1)N1CCN(c2ncccn2)CC1`, with > 45.4 µg/mL; and `O=C(O)/C=C/C(=O)Nc1ccc(S(=O)(=O)N2CCCC2)cc1`, with > 48.7 µg/mL.
In the case of `Cc1cc(C(=O)NCc2ccc3c(c2)OCO3)ccc1[N+](=O)[O-]`, the solubility (kinetic) stood at 38.7 µg/mL (≈ 123 µM).
As for `O=C(c1ccc2[nH]c(=O)c(=O)[nH]c2c1)N1CCc2ccccc2C1`, the figure is > 48.2 µg/mL; as for `Cc1ccc(NC(=S)Nc2ccc3[nH]c(=O)[nH]c3c2)cc1`, 44 µg/mL (≈ 147 µM); as for `Clc1ccc(-c2nc3ccccc3[nH]2)cn1`, 31.8 µg/mL (≈ 138 µM).
On to `CC(=O)c1sc2nsc(SCCN3CCCC3)c2c1N`, for which the solubility (kinetic) stood at 46.7 µg/mL (≈ 143 µM).
In the case of `O=C(c1ccc(F)cc1)C(C(=O)N1CCCCC1)n1ccccc1=O` (stereo not drawn), the kinetic solubility is > 51.4 µg/mL.
As for `CC1(C)C(C#N)=C(N)Oc2c1c(=O)oc1ccccc21`, the figure is 1.1 µg/mL (≈ 4.1 µM); as for `COc1ccc(NC(=S)NC2CC3CCCC(C2)N3C2CC2)cc1` (stereo not drawn), > 51.8 µg/mL; as for `CC(C)C(=O)Nc1cc(S(=O)(=O)N2CCOCC2)ccc1N1CCCCC1`, 49 µg/mL (≈ 124 µM).
For `O=C(Nc1cccc2ncccc12)c1ccco1`, the solubility (kinetic) worked out at 30.5 µg/mL (≈ 128 µM).
Consider `CN1C(=O)C(=O)/C(=C(/O)c2ccccc2)C1c1ccccc1` (stereo not drawn), for which the solubility (kinetic) was > 44 µg/mL.
Then `OC(CN1CCCCC1)Cn1c2ccccc2c2ccccc21` (stereo not drawn), with 45.1 µg/mL (≈ 146 µM).
Then `COc1ccc(S(=O)(=O)Nc2cc3[nH]c(=O)oc3cc2C)cc1`, with > 50.2 µg/mL; and `COc1cc(/C=C/C(=O)O)cc(S(=O)(=O)Nc2ccccc2C(=O)NCc2ccco2)c1OC`, with > 73 µg/mL.
As for `COc1ccc(C(=O)CSc2nnc3ccccn23)cc1OC`, the figure is > 49.4 µg/mL.
Consider `O=C(Nc1ccc2c(c1)OCCO2)c1ccoc1`, for which the kinetic solubility came to 35.7 µg/mL (≈ 146 µM).
As for `CCC(C(=O)Nc1nc(C)c(C(=O)OC)s1)c1ccccc1` (stereo not drawn), the figure is 22.6 µg/mL (≈ 71 µM).
In turn, `O=C(CCCNC(=O)c1ccc(Cl)cc1)Nc1cccc(F)c1` yielded a kinetic solubility of 5.6 µg/mL (≈ 16.7 µM).
As for `CCCC(=O)OCC[N+](C)(C)C.[Cl-]`, the figure is > 31.5 µg/mL; as for `Cc1onc(-c2c(F)cccc2Cl)c1C(=O)N(C)C1CCCCC1`, > 52.6 µg/mL.
Consider `Cc1c2n(c3ccccc13)CCC2=O`, for which the solubility (kinetic) was determined as 14.1 µg/mL (≈ 76.1 µM).
Turning to `Cn1c(N)c(C(=O)CN2CCc3ccccc3C2)c(=O)n(C)c1=O`, the kinetic solubility is > 49.3 µg/mL.
As for `CC1CC(CN)CC(CO)C1` (stereo not drawn), the figure is > 23.6 µg/mL; as for `CC(=O)Nc1ccc(S(=O)(=O)N2CCSc3ccccc32)cc1`, 49.6 µg/mL (≈ 142 µM); as for `Cn1cc([N+](=O)[O-])c(C(=O)N/N=C/c2ccncc2)n1`, > 41.1 µg/mL.
Molecule `OC(CNc1nc(C(F)(F)F)nc2ccccc12)c1ccccc1` (stereo not drawn) had a solubility (kinetic) of 6.3 µg/mL (≈ 18.9 µM).
As for `CC(C)(C)C1CCC(=NNC(=O)C(=O)NCc2cccnc2)CC1` (stereo not drawn), the figure is > 49.6 µg/mL; as for `O=C(NC(=S)N1CCCCC1)c1csc([N+](=O)[O-])c1`, > 44.9 µg/mL; as for `O=C(CNC(=O)c1ccccc1)OCc1cccc(Br)c1`, 46.4 µg/mL (≈ 133 µM).
As for `COCCn1cc(C(=S)N2CCCCC2)c2ccccc21`, the figure is > 45.4 µg/mL.
Then `CC(=O)Oc1ccc(C(=O)NCCc2ccccc2)cc1`, with 21.5 µg/mL (≈ 75.9 µM); and `CC(C)[C@H](NS(=O)(=O)c1ccccc1)C(=O)Nc1ccccc1N1CCOCC1`, with 52.1 µg/mL (≈ 125 µM); and `Cc1nn(C)c(Oc2ccccc2)c1CCNC(=O)CCl`, with > 46.2 µg/mL.
For the molecule `Cc1onc(-c2c(F)cccc2Cl)c1C(=O)NCCO`, the kinetic solubility was > 44.8 µg/mL.
As for `Cc1ccc(-c2nc3ccccc3[nH]2)cn1`, the figure is 29.5 µg/mL (≈ 141 µM); as for `CC(=O)Nc1nnc(S(N)(=O)=O)s1`, > 33.3 µg/mL; as for `COCCn1c(C)c(C)c2c(NCCc3ccccc3)ncnc21`, 34.8 µg/mL (≈ 107 µM).
As for `Cc1ccc(Cn2c(=O)c3c(ncn3C)n(C)c2=O)cc1`, the figure is > 42.6 µg/mL; as for `CCOc1ccc2[nH]c3c(NCCCOC)ncnc3c2c1`, 36.4 µg/mL (≈ 121 µM).
For `CC(C)NC(=O)C(=O)c1cn(C)c2ccccc12`, the solubility (kinetic) is 33.3 µg/mL (≈ 136 µM).
Regarding `CC(=O)c1cc(C#N)c(N2CCN(c3ccccc3)CC2)nc1C`, the kinetic solubility is 0.2 µg/mL (≈ 0.624 µM).
Then `COc1ccc2oc(C(=O)OCC(=O)N3CCC(C)CC3)c(C)c2c1`, with 41.8 µg/mL (≈ 121 µM).
On to `Cc1ccc(Nc2nc(C(=O)NCC3CCCO3)cs2)cc1` (stereo not drawn), for which the kinetic solubility was 9 µg/mL (≈ 28.4 µM).
For the molecule `Nc1ccc(SCc2cccnc2)cc1`, the solubility (kinetic) was found to be 31 µg/mL (≈ 143 µM).
Then `Clc1ccc(-c2noc(/C=C/c3ccccc3)n2)cc1`, with < 0.3 µg/mL.
On to `OCCN(CC#CC(O)(c1ccccc1)c1ccccc1)CCO`, for which the kinetic solubility is > 48.8 µg/mL.
As for `COc1ccc(CSc2nc(C)cc(C)c2C#N)cc1`, the figure is 2.7 µg/mL (≈ 9.49 µM); as for `COC(=O)/C=C1\SC(N)=NC1=O`, > 27.9 µg/mL.
As for `N#CC1=C(N)Oc2cc(O)c(Cl)cc2C1c1cccnc1` (stereo not drawn), the figure is 11.2 µg/mL (≈ 37.4 µM); as for `O=[N+]([O-])c1ccccc1OC/C(=N\O)c1ccccc1`, > 40.8 µg/mL.
As for `O=C(COC(=O)/C=C/c1ccccc1[N+](=O)[O-])Nc1ccc2[nH]c(=O)[nH]c2c1`, the figure is 10 µg/mL (≈ 26.2 µM); as for `Cc1nc(C)c(C(=O)Nc2cccc(F)c2)s1`, > 37.5 µg/mL; as for `O=C(Nc1ccccc1)C1CC2CCC1C2` (stereo not drawn), 31.8 µg/mL (≈ 148 µM).
`O=C(c1ccco1)c1cn(CC(=O)N2CCCCCC2)c2ccccc12`: the kinetic solubility is 1.4 µg/mL (≈ 4 µM).
In turn, `COc1cccc(CC(=O)Nc2ccccc2N2CCCC2)c1` gave a solubility (kinetic) of 43.9 µg/mL (≈ 141 µM).
Consider `CCOC(=O)CC1C(=O)NCCN1C1CCCC1` (stereo not drawn), for which the kinetic solubility is > 38.1 µg/mL.
As for `Cc1ccc(SC(C)C(=O)N2CCC(C(N)=O)CC2)cc1` (stereo not drawn), the figure is 30.4 µg/mL (≈ 99.2 µM); as for `Brc1ccc(CN2CCN(c3ccccc3)CC2)o1`, 22.5 µg/mL (≈ 70 µM); as for `COc1ccccc1Nc1nc(NCCC(C)C)nc(N)c1[N+](=O)[O-]`, < 0.1 µg/mL.
As for `Cc1cccc(CSc2nc3c(c(=O)n2C)SCC3)c1`, the figure is 11.6 µg/mL (≈ 38.1 µM); as for `CCN(CC)S(=O)(=O)c1ccc(NCc2ccccn2)nc1`, > 48.1 µg/mL; as for `COc1ccc(NS(=O)(=O)c2cccc3ccccc23)cc1`, 22.4 µg/mL (≈ 71.5 µM).
Then `COc1cc(OC)cc(C(=O)NCC(=O)OCC(=O)NC(C)CCc2ccccc2)c1` (stereo not drawn), with > 64.3 µg/mL.
Take `CC(CCc1ccc(O)cc1)NC1c2ccccc2-c2ccccc21` (stereo not drawn): the kinetic solubility amounted to 26.1 µg/mL (≈ 79.2 µM).
Then `Cc1cc(C)c(C)c(S(=O)(=O)NCc2ccncc2)c1C`, with 25.8 µg/mL (≈ 84.8 µM); and `O=C(CN1CCN(Cc2ccccc2)CC1)Nc1nc2ccccc2s1`, with 47.4 µg/mL (≈ 129 µM); and `Cc1ccc2[nH]c(C(=O)Nc3ccc(F)cc3)cc2c1`, with < 0.3 µg/mL.
On to `Cc1cccc(NC(=O)c2ccco2)c1C(=O)O`, for which the solubility (kinetic) amounted to 34.8 µg/mL (≈ 142 µM).
In the case of `Cc1c(Cc2ccccc2)sc(NC(=O)C(C)(C)C)c1C(N)=O`, the solubility (kinetic) amounted to 17.7 µg/mL (≈ 53.6 µM).
Then `C[C@@H](C(=O)N1CCN(c2ccccc2)CC1)N1C(=O)C2CC=CCC2C1=O` (stereo partly drawn), with > 55.1 µg/mL; and `CC(C)(C)c1ncc(S(=O)(=O)c2ccc(C(F)(F)F)cn2)c(N)n1`, with 1.4 µg/mL (≈ 3.88 µM); and `Cc1nc2ccccc2c(=O)n1-c1cccc([N+](=O)[O-])c1`, with 36.4 µg/mL (≈ 129 µM).
Then `COc1ccc(C(CC(=O)O)N2C(=O)CCC2=O)cc1` (stereo not drawn), with > 41.6 µg/mL.
Take `C=C(C)C(=O)Oc1ccc(N2C(=O)CCC2=O)cc1`: the solubility (kinetic) was > 38.9 µg/mL.
With `Cc1cc(C(=O)Nc2cc(S(C)(=O)=O)ccc2Cl)c(C)o1`, the kinetic solubility turned out to be 11.8 µg/mL (≈ 36 µM).
As for `CC(=O)Nc1ccccc1C(=O)N1CCN(c2cccc(C)c2C)CC1`, the figure is > 52.7 µg/mL; as for `CC(=O)Nc1ccc(C(=S)NCC2(N(C)C)CCCCC2)cc1`, 21.1 µg/mL (≈ 63.3 µM).
As for `CN(C)C(=O)c1cc2cc(Br)ccc2s1`, the figure is 7.4 µg/mL (≈ 26 µM); as for `C/C(=C\c1ccc(Br)cc1)C(=O)c1c(C)cc(C)[nH]c1=O`, > 51.9 µg/mL; as for `Cc1ccc(-c2cc(C(=O)NC3CCCC3)no2)cc1`, 0.5 µg/mL (≈ 1.85 µM).
Then `Cc1[nH]c(=S)c(C#N)c(C)c1CCC#N`, with > 32.6 µg/mL.
Take `CC(C)c1ccc(OCC(=O)Nc2ccc3oc(=O)ccc3c2)cc1`: the kinetic solubility is < 0.7 µg/mL.
`COC(=O)c1ccc(COc2ccc(NC(C)=O)cc2)o1`: the solubility (kinetic) is > 43.4 µg/mL.
Then `CCCNC(=S)N1CCC(C(=O)c2ccc(F)cc2)CC1`, with > 46.3 µg/mL; and `CNC(=O)c1ccccc1Sc1ccccc1CO`, with 40.3 µg/mL (≈ 147 µM).
Then `COc1ccc2c(c1)-c1nc(/N=C/c3cccc(OC)c3O)sc1CC2`, with > 55 µg/mL.
As for `COc1nc(C)nc(C)c1Oc1ccc(Cl)cc1Cl`, the figure is 1.5 µg/mL (≈ 5.01 µM); as for `CSc1ncccc1C(=O)Nc1ccccc1N1CCOCC1`, > 49.4 µg/mL.
With `O=[N+]([O-])/C(=C\Nc1ccc(F)cc1F)S(=O)(=O)c1ccccc1`, the kinetic solubility was > 51 µg/mL.
With `COc1cc(/C=C2/CC(C)OC2=O)c([N+](=O)[O-])cc1OC` (stereo not drawn), the kinetic solubility was > 44 µg/mL.
